How the values were obtained:
[1] = test system: patients with PoPH; experiment: PORTICO: Borg dyspnea index after 6MWT; assay type: in vivo, human; conditions: DB period
Protocol: (iv) 6-minute walk test, including Borg dyspnea index: The 6MWT was performed at Screening, Baseline (Visit 2/Randomization), and then every Visit until EOT-DB or EOT-OL, whichever came last. It is a non-encouraged test that measures the distance walked by the patient in six minutes. It is important that for each individual patient the 6MWT was conducted under the same conditions throughout the study (e.g., same location, same tester, same time of day, with or without nasal oxygen therapy and where applicable with same flow rate as Baseline). The Borg dyspnea index was evaluated after each 6MWT. It rates dyspnea on a scale from 0 to 10.
Double-blind treatment period: Changes from baseline to Week 12 in HVPG/HVPG (central review) and Borg dyspnea index (related to the DB treatment period) are summarized by treatment group in the FAS using descriptive statistics.

[2] = test system: patients with PoPH; experiment: PORTICO safety: hematology (platelets, lymphocytes, neutrophils); assay type: in vivo
Source text: For the evaluation of treatment-emergent safety endpoints in the DB phase, the observation period for each individual subject started at the time of the first administration of macitentan or placebo and ended with the start of OL treatment or 30 days after DB treatment discontinuation (whichever occurred first). The safety variables listed below apply to the DB treatment-emergent period and the macitentan treatment-emergent period. The DB treatment-emergent period was defined as the period from the DB treatment start date up to the EOT-DB+30 days or to the EOT-DB for patients entering OL. The macitentan treatment-emergent period was defined as the period from the first intake of macitentan up to end of macitentan treatment (EOMT)+30 days. EOMT was defined as EOT-DB (for patient who received macitentan only in the DB period) or EOT-OL when applicable. For patients entering OLE, the EOMT is EOT-OL. • Treatment-emergent AEs • Treatment-emergent deaths • Treatment-emergent serious adverse events (SAEs) • AEs leading to premature discontinuation of study treatment • Occurrence of post-baseline LFT (ALT and/or AST) abnormalities, classified as: • ≥3×ULN; • ≥5×ULN; • ≥8×ULN; • ≥3×ULN and <5×ULN; • […] and <8×ULN. • Occurrence of post-baseline ALT and/or AST abnormality 3×ULN and concomitant (i.e., at the same time) total bilirubin ≥2×ULN • Occurrence of post-baseline ALT and/or AST abnormality ≥3×ULN and concomitant (i.e., at the same time) total bilirubin ≥2×ULN and increased as compared to baseline • Occurrence of hemoglobin abnormalities, classified as: • ≤80 g/L, • >80 and ≤100 g/L, • decrease from baseline ≥20 g/L and <50 g/L, • decrease from baseline ≥50 g/L, • <100 g/L and concurrent (i.e., at the same time) decrease from baseline ≥20 g/L. • Other treatment-emergent marked laboratory abnormalities • Change from baseline/macitentan baseline to EOT-DB/EOMT in vital signs • Change from baseline/macitentan baseline to EOT-DB/EOMT in laboratory variables • Change from baseline/macitentan baseline to EOT-DB/EOMT in Child-Pugh classification • Change from baseline/macitentan baseline to EOT-DB/EOMT in MELD score

[3] = test system: patients with PoPH; experiment: Post-hoc: liver transplant perioperative risk classification (mPAP categories); assay type: in vivo, human; conditions: for LT perioperative risk classification: Week 12 High risk (mPAP => 45 mm Hg): 10 mg, N = 43
Protocol: Post-Hoc, Exploratory Criteria: • Proportion of patients with NT-proBNP decrease from above 300 ng/L to below this threshold • Odds ratio for improvement to a more favorable liver transplant perioperative risk category • Odds ratio for becoming eligible for the MELD exception • Odds ratio for improvement to a more favorable waitlist mortality risk category
Risk categories related to liver transplant (transplant perioperative risk classification, MELD exception eligibility and waitlist mortality risk) were analyzed descriptively by treatment group using shift tables from baseline to Week 12 with categories as defined in Example 1.
LT perioperative risk classification, MELD exception eligibility, and waitlist mortality analyses were performed after the database lock and SDTMs delivery for the Double-Blind period. Number (%) of patients in following categories were summarized and presented in shift tables. The estimated odds ratio for risk improvement and corresponding 95% confidence intervals were obtained from an exact logistic regression (macitentan vs placebo) with factors for treatment and risk category at baseline.
The presence of moderate to severe pulmonary hypertension in patients with liver disease increases the risk of graft dysfunction and cardiopulmonary-related mortality after orthotopic liver transplant. According to the International Liver Transplant Society (ILTS) Practice Guidelines, liver transplant is conditional to appropriate hemodynamics due to the risk of cardiopulmonary-related mortality after liver transplant: • mPAP ≥45 mmHg is an absolute contraindication to liver transplant (high risk) as it is associated with 100% cardiopulmonary mortality • mPAP ≥35 mmHg and <45 mmHg, with increased PVR is associated with increased mortality (intermediate risk) of about 50%
mPAP <35 mmHg is associated with a low risk for liver transplant • LT perioperative risk classification

[4] = test system: endothelin A and B receptors; conditions: nonclinical in vivo studies; cited from earlier work
[5] = LL at baseline, DB phase, Safety set, 10 mg
[6] = LL at baseline, macitentan DB + OL phase, Macitentan treated set
[7] = Normal at baseline, DB phase, Safety set, 10 mg
[8] = Normal at baseline, macitentan DB + OL phase, Macitentan treated set

CCCNS(=O)(=O)Nc1ncnc(OCCOc2ncc(Br)cn2)c1-c1ccc(Br)cc1 [macitentan, N-[5-(4-Bromophenyl)-6-[2-[(5-bromo-2-pyrimidinyl)oxy]ethoxy]-4-pyrimidinyl]-N′-propylsulfamide]
Change in Borg dyspnea score over time [1]: no change
Median decrease in lymphocyte count, baseline to Week 12 ([2]; DB phase, macitentan group): 2.8e+08 L⁻¹
Median decrease in neutrophil count, baseline to Week 12 ([2]; DB phase, macitentan group): 7.2e+08 L⁻¹
Median decrease in platelets at Week 12 ([2]; DB phase, macitentan group): 1.1e+10 L⁻¹
Median lymphocyte count at Week 12 ([2]; DB phase, macitentan group): 1.04e+09 L⁻¹
Median neutrophil count at Week 12 ([2]; DB phase, macitentan group): 2.25e+09 L⁻¹
Patients with neutrophil decreases from normal at baseline to <1.5×10^9/L ([2]; DB phase, macitentan group): 6/41
Patients with normal platelets at baseline decreasing to <75×10^9/L ([2]; DB phase, macitentan group): 2/29
Leukocytes (10^9/L) <2.0 (LLL), worst treatment-emergent marked abnormality [2, 5]: 2/5
Lymphocytes (10^9/L) <0.5 (LLL), worst treatment-emergent marked abnormality [2, 5]: 3/5
Neutrophils (10^9/L) <1.0 (LLL), worst treatment-emergent marked abnormality [2, 5]: 0/2
Leukocytes (10^9/L) <2.0 (LLL), worst treatment-emergent marked abnormality [2, 6]: 3/7
Lymphocytes (10^9/L) <0.5 (LLL), worst treatment-emergent marked abnormality [2, 6]: 6/10
Neutrophils (10^9/L) <1.0 (LLL), worst treatment-emergent marked abnormality [2, 6]: 0/2
Leukocytes (10^9/L) <2.0 (LLL), worst treatment-emergent marked abnormality [2, 7]: 0/38
Leukocytes (10^9/L) <3.0 −≥ 2.0 (LL), worst treatment-emergent marked abnormality [2, 7]: 5/38
Lymphocytes (10^9/L) <0.5 (LLL), worst treatment-emergent marked abnormality [2, 7]: 1/38
Lymphocytes (10^9/L) <0.8 −≥ 0.5 (LL), worst treatment-emergent marked abnormality [2, 7]: 8/38
Neutrophils (10^9/L) <1.0 (LLL), worst treatment-emergent marked abnormality [2, 7]: 2/41
Neutrophils (10^9/L) <1.5 −≥ 1.0 (LL), worst treatment-emergent marked abnormality [2, 7]: 4/41
Leukocytes (10^9/L) <2.0 (LLL), worst treatment-emergent marked abnormality [2, 8]: 4/76
Leukocytes (10^9/L) <3.0 −≥ 2.0 (LL), worst treatment-emergent marked abnormality [2, 8]: 9/76
Lymphocytes (10^9/L) <0.5 (LLL), worst treatment-emergent marked abnormality [2, 8]: 2/72
Lymphocytes (10^9/L) <0.8 −≥ 0.5 (LL), worst treatment-emergent marked abnormality [2, 8]: 19/72
Neutrophils (10^9/L) <1.0 (LLL), worst treatment-emergent marked abnormality [2, 8]: 5/81
Neutrophils (10^9/L) <1.5 −≥ 1.0 (LL), worst treatment-emergent marked abnormality [2, 8]: 12/81
Patients with shifts in lymphocyte counts from normal at baseline to <0.8×10^9/L ([2]; any time during DB phase, macitentan group): 9/38
Median decrease from baseline in platelet counts ([2]; combined DB+OL phase): no median decrease
Median decrease in lymphocyte count, baseline to Week 24 ([2]; macitentan DB+OL phase): 2.4e+08 L⁻¹
Median decrease in neutrophil count, baseline to Week 24 ([2]; macitentan DB+OL phase): 3.3e+08 L⁻¹
Median lymphocyte count at Week 24 ([2]; macitentan DB+OL phase): 1.05e+09 L⁻¹
Median neutrophil count at Week 24 ([2]; macitentan DB+OL phase): 2.4e+09 L⁻¹
Patients with platelet decreases from normal at macitentan baseline to <75×10^9/L ([2]; macitentan DB+OL phase): 7 patients
Patients with shifts in lymphocyte counts from normal at baseline to <0.8×10^9/L ([2]; macitentan DB+OL phase): 21/72
Patients with shifts in neutrophil counts from normal at baseline to notably low ([2]; macitentan DB+OL phase): 17/81
LT perioperative risk classification: Week 12 High risk (mPAP => 45 mm Hg) ([3]; Baseline Intermediate risk (n = 16)): 0 n (%)
LT perioperative risk classification: Week 12 High risk (mPAP => 45 mm Hg) ([3]; Baseline Low risk (n = 2)): 0 n (%)
Odds to change to a more favorable LT perioperative risk category, macitentan vs placebo ([3]; Week 12, exact logistic regression): 3.73 times
Patients improving to a more favorable LT perioperative risk category ([3]; after 12 weeks, FAS no imputation, 18 patients): 41.9%
LT perioperative risk: Between-treatment odds ratio for improvement, OR ([3]; macitentan vs placebo, exact logistic regression, 95% CI 1.175, 13.401, p-value 0.0224): 3.732
Potency compared with bosentan [4]: higher potency than bosentan

— patent US20220257595A1, “MACITENTAN FOR USE IN TREATING PORTOPULMONARY HYPERTENSION” (ACTELION PHARMACEUTICALS LTD, priority 2019, published 2022)
